{
  "source": "patent US8507506B2",
  "about": "“Theophylline derivative inhibits osteoporosis” (Kaohsiung Medical University, priority 2011, dated 2013)",
  "assay_type_in_all_cases": "cell-based",
  "key": {"[1]": {"test_system": "Fra-1 mRNA in RAW264.7 cells", "assay": "RT-PCR, RANKL-induced mRNA expression of Fra-1", "conditions": "for RANKL-induced mRNA expression level of Fra-1: RAW264.7 cells, 24 hours, CTL 100%, mean ± SEM", "description": "(§1) The culture medium was discarded. […] [table] f) Running • A."}, "[2]": {"test_system": "c-Fos protein in RAW264.7 cells", "assay": "Western blot, expression of c-Fos induced by RANKL", "conditions": "7.5 μM and 10 μM, RANKL 24 hours, FIG. 12", "procedure": "The proteins were collected by scraping and were centrifuged (13,000 rpm, 4° C., 30 minutes). The supernatant was stored in an eppendorf in −80° C. • c) Concentrations of the proteins were examined by Bio-Red DC Protein Assay. After knowing the concentrations, the proteins were diluted to specific concentrations by adding ddH2O. One forth volume of the diluted proteins of sample buffer was added into the diluted proteins and was put in boiled water for 5 min and then was chilled on ice for 5 minutes. After short time centrifugation, the diluted proteins could be injected into wells of a gel. The gel was run at 100 V for 10 minutes until the proteins were driven to the intersection between a loading gel and a running gel. Then, the voltage was swopped to 200 V for 40 minutes. • d) A PVDF membrane was immersed in Methanol for 2 minutes. After two washes in ddH2O, the membrane was immersed in transfer buffer for 15 minutes. A SDS-PAGE was put on the membrane, and wet paper was flanked them. The proteins were transferred to the PVDF membrane using a semi-dry transfer at 20 V for 30 minutes. • e) The band of the PVDF membrane was trimmed and was added by suitable amount of blocking buffer (5% skim milk in washing buffer) and then was shaken for 1 hour in room temperature to block non specific bindings. Then, the band was covered by a diluted 1° antibody overnight in 4° C. […]"}, "[3]": {"test_system": "Akt phosphorylation in RAW264.7 cells", "assay": "Western blot, phosphorylation of Akt induced by RANKL", "conditions": "10 ng/ml RANKL for 30 minutes, dose dependent, FIG. 17", "procedure": "RANKL can activate PI3K/Akt pathway to maintain the existence and the proliferation of osteoclast-like cells and prevent the apoptosis. The Akt phosphorylation level which is induced by RANKL is examined at different time points. The induced Akt phosphorylation is most apparent when it is induced by 10 ng/ml RANKL for 30 minutes. Therefore, 30 minutes are used to be the time point for inducing Akt phosphoryaltion. […] The proteins were collected by scraping and were centrifuged (13,000 rpm, 4° C., 30 minutes). The supernatant was stored in an eppendorf in −80° C. • c) Concentrations of the proteins were examined by Bio-Red DC Protein Assay. After knowing the concentrations, the proteins were diluted to specific concentrations by adding ddH2O. One forth volume of the diluted proteins of sample buffer was added into the diluted proteins and was put in boiled water for 5 min and then was chilled on ice for 5 minutes. After short time centrifugation, the diluted proteins could be injected into wells of a gel. The gel was run at 100 V for 10 minutes until the proteins were driven to the intersection between a loading gel and a running gel. Then, the voltage was swopped to 200 V for 40 minutes. • d) A PVDF membrane was immersed in Methanol for 2 minutes. After two washes in ddH2O, the membrane was immersed in transfer buffer for 15 minutes. […]"}, "[4]": {"test_system": "RAW264.7 cells stimulated by RANKL", "assay": "TRAP stain, differentiation into multinuclear osteoclast-like cells", "conditions": "10 ng/ml RANKL for 5 days, FIG. 3", "quoted_text": "10^3 cells were plated per well in 96-well plates. […] PBS, 50 μl/well fluid was left. […] 50 μl/well fluid was left, and then Substrate 200 μl/well was added to react for 15 minutes in room temperature. After the cells were stained in red, the cells were washed by ddH2O. At last, the cells were observed and taken pictures by an optical microscopy (40× and 200×), and Autopano Pro V1.4.2, Kolor, Paris, was used to proceed the pictures taken in 40×. Then, the number of the osteoclasts with at least three nuclei was counted and compared with the control group. […] Fixative solution: Citrate solution 25 ml, Acetone 65 ml, 37% Formaldehyde 8 ml. Stored in dark in 4° C. • 2. Citrate solution: 18 mM citric acid, 9 mM sodium citrate, and 12 mM NaCl were solved in 100 ml water, pH 3.6, and then 0.001% Triton X-100 was added at last. • 3. Substrate: 2 mg AS-MX (Naphthol As-Mx-phosphate disodium) and 6 mg Fast Red Violet LB were solved in 1 M Sodium tartrate acetone (0.1 M, pH 5) and 0.1 M, 19 ml sodium acetate."}, "[5]": {"test_system": "RAW264.7 cells", "assay": "BrdU assay, proliferation induced by RANKL", "conditions": "RAW264.7, 5 μM, 7.5 μM, 10 μM, FIG. 2", "quoted_text": "The BrdU assay was followed the instructions of Cell Proliferation ELISA BrdU kit. 10^3 cells were plated per well in 96-well plates. […] After washing in wash buffer for three times, 100 μl/well Substrate reaction was added and incubated for 30 minutes at room temperature."}, "[6]": {"test_system": "JNK phosphorylation in RAW264.7 cells", "assay": "Western blot, phosphorylation of JNK induced by RANKL", "conditions": "7.5 μM and 10 μM, RANKL 15 minutes, FIG. 10", "procedure": "MAP kinases including ERK, JNK and p38 are stimulated by RANKL to be phosphorylized and further influence the down-stream key transcription factors which induce the differentiation of osteoclast-like cells such as c-Fos, NFATc1, etc. Before estimating the drug effect, 10 ng/ml RANKL are used to induce the phosphorylation of ERK, JNK and p38 at different time points. […] It is shown that KMUP-1 can reduce the activation of MAP kinases induced by RANKL. […] The proteins were collected by scraping and were centrifuged (13,000 rpm, 4° C., 30 minutes). The supernatant was stored in an eppendorf in −80° C. • c) Concentrations of the proteins were examined by Bio-Red DC Protein Assay. After knowing the concentrations, the proteins were diluted to specific concentrations by adding ddH2O. One forth volume of the diluted proteins of sample buffer was added into the diluted proteins and was put in boiled water for 5 min and then was chilled on ice for 5 minutes. After short time centrifugation, the diluted proteins could be injected into wells of a gel. The gel was run at 100 V for 10 minutes until the proteins were driven to the intersection between a loading gel and a running gel. Then, the voltage was swopped to 200 V for 40 minutes. • d) A PVDF membrane was immersed in Methanol for 2 minutes. After two washes in ddH2O, the membrane was immersed in transfer buffer for 15 minutes. […]"}, "[7]": {"test_system": "TRAF6 mRNA in RAW264.7 cells", "assay": "RT-PCR, RANKL-induced mRNA expression of TRAF6", "conditions": "for RANKL-induced mRNA expression level of TRAF6: RAW264.7 cells, 24 hours, CTL 100%, mean ± SEM", "description": "as §1"}, "[8]": {"test_system": "osteoclast-like cells, OCL", "assay": "Intracellular calcium (fura-2/AM), RANKL-induced calcium influx", "conditions": "1 μM and 10 μM, FIGS. 14 and 15"}, "[9]": {"conditions": "10 ng/ml RANKL, summary of Table 1"}},
  "note": "Marks after values point to notes of the source that are not given here.",
  "data": [
    {"smiles": "Cn1c(=O)c2c(ncn2CCN2CCN(c3ccccc3Cl)CC2)n(C)c1=O", "note": "[KMUP-1, 7-[2-[4-(2-Chlorophenyl)piperazin-1-yl]ethyl] theophylline]", "values": [
      {"measurement": "effect on mRNA expression of Fra-1 induced by RANKL (in words)", "setting": "[1]; [9]", "value": "inhibits the mRNA expression"},
      {"measurement": "RANKL-induced mRNA expression level of Fra-1", "setting": "[1]; RANKL 10 ng/ml + KMUP-1 1 μM", "value": "244.1 ± 38.9", "unit": "% ^b"},
      {"measurement": "RANKL-induced mRNA expression level of Fra-1", "setting": "[1]; RANKL 10 ng/ml + KMUP-1 2.5 μM", "value": "285.1 ± 44.8", "unit": "% ^b"},
      {"measurement": "RANKL-induced mRNA expression level of Fra-1", "setting": "[1]; RANKL 10 ng/ml + KMUP-1 5 μM", "value": "310.1 ± 56.3", "unit": "% ^b"},
      {"measurement": "RANKL-induced mRNA expression level of Fra-1", "setting": "[1]; RANKL 10 ng/ml + KMUP-1 7.5 μM", "value": "238.7 ± 49.9", "unit": "% ^b"},
      {"measurement": "RANKL-induced mRNA expression level of Fra-1", "setting": "[1]; RANKL 10 ng/ml + KMUP-1 10 μM", "value": "265.2 ± 64.1", "unit": "% ^b"},
      {"measurement": "expression of c-Fos induced by RANKL", "setting": "[2]", "value": "can efficiently inhibit it"},
      {"measurement": "phosphorylation of Akt induced by RANKL", "setting": "[3]", "value": "can efficiently inhibit phosphorylation of Akt induced by RANKL"},
      {"measurement": "differentiation into multinuclear osteoclast-like cells (TRAP staining)", "setting": "[4]", "value": "obviously express inhibition phenomenon related to dose"},
      {"measurement": "cell proliferation induced by RANKL (BrdU assay)", "setting": "[5]", "value": "can inhibit the cell proliferation induced by RANKL"},
      {"measurement": "phosphorylation of JNK induced by RANKL", "setting": "[6]", "value": "can efficiently inhibit the phosphorylation of ERK, JNK and p38 induced by RANKL"},
      {"measurement": "effect on mRNA expression of TRAF6 induced by RANKL (in words)", "setting": "[7]; [9]", "value": "not obviously inhibits"},
      {"measurement": "RANKL-induced mRNA expression level of TRAF6", "setting": "[7]; RANKL 10 ng/ml + KMUP-1 1 μM", "value": "100.2 ± 4.7", "unit": "%"},
      {"measurement": "RANKL-induced mRNA expression level of TRAF6", "setting": "[7]; RANKL 10 ng/ml + KMUP-1 2.5 μM", "value": "123.8 ± 2.3", "unit": "%"},
      {"measurement": "RANKL-induced mRNA expression level of TRAF6", "setting": "[7]; RANKL 10 ng/ml + KMUP-1 5 μM", "value": "125.9 ± 2.9", "unit": "% ^"},
      {"measurement": "RANKL-induced mRNA expression level of TRAF6", "setting": "[7]; RANKL 10 ng/ml + KMUP-1 7.5 μM", "value": "128.4 ± 6.5", "unit": "% ^"},
      {"measurement": "RANKL-induced mRNA expression level of TRAF6", "setting": "[7]; RANKL 10 ng/ml + KMUP-1 10 μM", "value": "127.2 ± 1.3", "unit": "% ^"},
      {"measurement": "RANKL-induced extracellular calcium influx", "setting": "[8]", "value": "can inhibit it"}
    ]}
  ]
}
